Results reported in patent US9365541B2, “Compounds for use in the treatment of parasitic diseases” (IRBM—SCIENCE PARK S.P.A., priority 2012, dated 2016).
pEC50, pIC50: −log10 of the molar value.

Assays:
[1] = test system: Plasmodium falciparum 3D7; experiment: P. falciparum growth inhibition assay (Pf-LDH); type: cell-based; details: Plasmodium falciparum, Erythrocyte; P. falciparum 3D7 infected erythrocytes, 72 h incubation, PfLDH readout
Method: Basic culture of Plasmodium falciparum 3D7 parasites (Malaria Research and Reference Reagent Resource Center (MR4), MR4 Number: MRA-102).
Starting with a culture with a parasitemia of about 10% (and 5% hematocrit), 0.5 ml of the culture is placed in a fresh 100 mm petri dish with 0.95 ml of fresh erythrocytes (50% hematocrit) and 8.55 ml of culture medium, giving a new starting parasitemia of 0.5%. The petri dish is then incubated at 37° C. in a humidified gas-tight plastic box flushed with a gas mixture consisting of 93% N2, 4% CO2, and 3% O2. The culture medium is changed daily. The supernatant is removed by gently tipping the dish without disturbing the settled cells and aspirating the medium with a Pasteur pipette connected to a vacuum pump. A small amount of the concentrated cells is taken to prepare a blood smear for determination of the parasitemia. Normally, the cultures are split twice a week. If the parasites are growing very slowly then fresh erythrocytes are added to the culture no later than after 7 days. The cultures are then split 1:2 if the parasitemia is lower than 0.5%. To avoid the necessity of daily medium change on weekends, a culture with a 2.5% hematocrit and 0.1-0.2% parasitemia is set up and can be left for 3 days without medium change.
Standard medium consists of RPMI 1640, supplemented with 25 mM HEPES, 24 mM NaHCO3, 0.36 mM hypoxanthine, 100 μg/ml Neomycin, 5 g/1 Albumax® II, and washed human red blood cells (rbcs) A+.
P. falciparum Growth Inhibition Assay (Pf-LDH)
Compounds of the invention were assessed for in vitro antimalarial activity against a cloroquine sensitive (3D7) strain of the malaria parasite Plasmodium falciparum, using a lactate dehydrogenase (PfLDH) assay.
EC50 Determination by Pf-LDH Assay
384 plates (where compounds to be tested are dispensed) with 25 μl of parasite inoculum (parasitemia: 0.25%, hematocrit: 2%) are incubated at 37° C. in an atmosphere of 4% CO2, 3% O2, 93% N2. After 72 h of incubation, plates are frozen at −70° C. overnight and thawed at room temperature for at least 4 h. To evaluate PfLDH activity, 70 μl of freshly made reaction mix (143 mM sodium L-lactate, 143 μM 3-acetyl pyridine adenine dinucleotide (APAD), 178.75 μM Nitro Blue tetrazolium chloride (NBT), 286 μg/ml diaphorase (2.83 U/ml), 0.7% Tween 20, 100 mM Tris-HCl pH 8.0) is dispensed using a Multidrop Combi dispenser. Plates are shaken to ensure mixing and absorbance at 650 nm is monitored in a plate reader after 10 min of incubation at room temperature.
Negative controls (0% Effect) are produced by addition of DMSO to the proper wells.
Positive controls (100% Effect) are produced by addition of 150 nM Artemisinin (Sigma-Aldrich, 361593)
After result normalization using positive and negative controls, compound potency is determined by fitting the following equation: % inh=Ymin+(Ymax−Ymin)/(1+(X/EC50)^slope)) Where: • Ymin=minimum percentage effect • Ymax=maximum percentage effect • EC50=the concentration of the compound at which 50% effect is reached • Slope=the slope of the curve calculated at the EC50 Histone Hyperacetylation and Immunodetection of Altered Histone Modifications Assay

human HDAC1 = biological target: T1, human HDAC1 (Homo sapiens, UniProt Q13547); experiment: Homo sapiens HDAC1 inhibition assay (Fluor-de-Lys, enzymatic); type: biochemical; details: human HDAC enzymatic assay; read-out: hHDAC IC50
T1 construct: made in house; host or cells: HeLa (ATCC CCL-2), mammalian cells
Method: Biology Homo sapiens HDAC1 Inhibition Assay Overview:
The aim of the assay is to evaluate the inhibition of the deacetylase activity of human HDAC1. To such goal an acetylated substrate is added to the enzyme mix; the resulting enzymatic product is converted to a fluorescent molecule by the addition the enzyme trypsine (developer solution). Fluorescence intensity is inversely proportional to the rate of inhibition of the enzyme (as indicated in the material section below).
Reagents of the HDAC Fluorescent Activity Assay are purchased from Enzo Life Sciences (http://www.enzolifesciences.com/BML-AK500/fluor-de-lys-hdac-fluorometric-activity-assay-kit/) and feature the Fluor-de-Lys™ Substrate/Developer System.
c) Trichostatin A (TSA) Stock
TSA (Sigma-Aldrich, T8552) is provided as a 10 mM stock solution in 100% dimethylsulfoxide (DMSO).
Diluted Substrate Solution
The final concentration in the assay is 20 μM.
Diluted Developer Solution
2 μM [final] TSA to this solution increases its ability to stop the reaction.
The HDAC1 enzyme is diluted in assay buffer prior to each use from a fresh aliquot of enzyme.
The final concentration in the assay is 1-2 nM.
Test compounds should be prepared in 100% DMSO and transferred to the assay by a nano volume dispenser to reach the appropriate concentration and the appropriate DMSO concentration (0.25%) in the reaction.

T1 sequence (Q13547 whole entry): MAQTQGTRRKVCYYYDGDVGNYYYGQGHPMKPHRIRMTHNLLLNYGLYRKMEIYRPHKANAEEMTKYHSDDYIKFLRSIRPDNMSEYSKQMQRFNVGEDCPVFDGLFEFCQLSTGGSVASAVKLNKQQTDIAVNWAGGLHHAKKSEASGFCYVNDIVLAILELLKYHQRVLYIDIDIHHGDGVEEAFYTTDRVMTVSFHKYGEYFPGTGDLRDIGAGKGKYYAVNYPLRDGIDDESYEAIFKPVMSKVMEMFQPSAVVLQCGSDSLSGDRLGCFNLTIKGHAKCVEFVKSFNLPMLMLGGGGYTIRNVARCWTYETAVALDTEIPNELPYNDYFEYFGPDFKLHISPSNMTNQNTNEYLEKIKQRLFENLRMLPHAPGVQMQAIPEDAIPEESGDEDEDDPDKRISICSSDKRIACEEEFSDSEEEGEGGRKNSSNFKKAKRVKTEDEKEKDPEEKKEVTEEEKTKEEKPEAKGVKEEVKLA

| SMILES | pEC50 [1] | pIC50 (human HDAC1) |
| --- | --- | --- |
| CNC(=O)CCCCC[C@H](NC(=O)c1cncs1)c1ncc(-c2ccc3ccncc3c2)[nH]1 [Entry 143, (S)-N-(1-(5-(isoquinolin-7-yl)-1H-imidazol-2-yl)-7-(methylamino)-7-oxoheptyl)thiazole-5-carboxamide] | > 6.00 | > 6.00 |
| CNC(=O)CCCCC[C@H](NC(=O)C1CCCO1)c1ncc(-c2cc3ccccc3nc2OC)[nH]1 (stereo partly drawn) [Entry 187, N-((S)-1-(5-(2-methoxyquinolin-3-yl)-1H-imidazol-2-yl)-7-(methylamino)-7-oxo-heptyl)tetra-hydrofuran-2-carboxamide] | < 5.30 | < 5.30 |
| CNC(=O)CCCCC[C@H](NC(=O)[C@@H]1CCCN2CCCC[C@H]12)c1ncc(-c2ccc3ccncc3c2)[nH]1 [Entry 206, (1R,9aR)-N-((S)-1-(5-(isoquinolin-7-yl)-1H-imidazol-2-yl)-7-(methylamino)-7-oxoheptyl)octa-hydro-1H-quinolizine-1-carboxamide] | 5.30 to 6.00 | 5.30 to 6.00 |
| CNC(=O)CCCCC[C@H](NC(=O)c1cnc(C)s1)c1ncc(-c2ccc(-c3ccn(C)n3)cc2)[nH]1 [Entry 17, (S)-2-methyl-N-(1-(5-(4-(1-methyl-1H-pyrazol-3-yl)phenyl)-1H-imidazol-2-yl)-7-(methylamino)-7-oxoheptyl)thiazole-5-carboxamide] | > 6.00 | 5.30 to 6.00 |
| CNC(=O)CCCCC[C@H](NC(=O)c1cncs1)c1ncc(-c2ccc(NC(C)=O)cc2)[nH]1 [Entry 53, (S)-N-(1-(5-(4-acetamidophenyl)-1H-imidazol-2-yl)-7-(methylamino)-7-oxoheptyl)thiazole-5-carboxamide] | 5.30 to 6.00 | 5.30 to 6.00 |
| CNC(=O)CCCCC[C@H](NC(=O)c1cncs1)c1ncc(-c2ccn3ncnc3c2)[nH]1 [Entry 125, (S)-N-(1-(5-([1,2,4]triazolo[1,5-a]pyridin-7-yl)-1H-imidazol-2-yl)-7-(methylamino)-7-oxoheptyl)thiazole-5-carboxamide] | < 5.30 | < 5.30 |
| CNC(=O)CCCCC[C@H](NC(=O)CCc1cnn(C)c1)c1ncc(-c2cc3ccccc3nc2OC)[nH]1 [Entry 134] | 5.30 to 6.00 | < 5.30 |
| CNC(=O)CCCCC[C@H](NC(=O)c1cncs1)c1ncc(-c2ccc3cc(OC)ccc3c2)[nH]1 [Entry 194, (S)-N-(1-(5-(6-methoxynaphthalen-2-yl)-1H-imidazol-2-yl)-7-(methylamino)-7-oxoheptyl)thiazole-5-carboxamide] | > 6.00 | > 6.00 |
| CNC(=O)CCCCC[C@H](NC(=O)c1cnn(C)c1)c1ncc(-c2ccc(-c3ccn(C)n3)cc2)[nH]1 [Entry 212, (S)-1-methyl-N-(1-(5-(4-(1-methyl-1H-pyrazol-3-yl)phenyl)-1H-imidazol-2-yl)-7-(methylamino)-7-oxoheptyl)-1H-pyrazole-4-carboxamide] | > 6.00 | 5.30 to 6.00 |
| CNC(=O)CCCCC[C@H](NC(=O)c1cncs1)c1ncc(-c2ccc3cccnc3c2)[nH]1 [Entry 10] | 5.30 to 6.00 | < 5.30 |
| CNC(=O)CCCCC[C@H](NC(=O)Cc1nc(C)cs1)c1ncc(-c2ccc3ccncc3c2)[nH]1 [Entry 68] | < 5.30 | 5.30 to 6.00 |
| CNC(=O)CCCCC[C@H](NC(=O)c1ccc(N2CC(=O)NC2=O)cc1)c1ncc(-c2ccc(-n3cccn3)cc2)[nH]1 [Entry 195, (S)-N-(1-(5-(4-(1H-pyrazol-1-yl)phenyl)-1H-imidazol-2-yl)-7-(methylamino)-7-oxoheptyl)-4-(2,4-dioxoimidazolidin-1-yl)benzamide] | 5.30 to 6.00 | < 5.30 |
| CNC(=O)CCCCC[C@H](NC(=O)C1CCN(C)CC1)c1ncc(-c2ccc(-n3cccn3)cc2)[nH]1 [Entry 162] | < 5.30 | < 5.30 |
| CNC(=O)CCCCC[C@H](NC(=O)c1ccn(C)n1)c1ncc(-c2cc3ccccc3nc2OC)[nH]1 [Entry 135, (S)-N-(1-(5-(2-methoxyquinolin-3-yl)-1H-imidazol-2-yl)-7-(methylamino)-7-oxoheptyl)-1-methyl-1H-pyrazole-3-carboxamide] | 5.30 to 6.00 | < 5.30 |
| CNC(=O)CCCCC[C@H](NC(=O)c1cnn(C(C)C)c1)c1ncc(-c2ccc(-c3ccn(C)n3)cc2)o1 [Entry 223, (S)-1-isopropyl-N-(1-(5-(4-(1-methyl-1H-pyrazol-3-yl)phenyl)oxazol-2-yl)-7-(methylamino)-7-oxoheptyl)-1H-pyrazole-4-carboxamide] | 5.30 to 6.00 | < 5.30 |
| CNC(=O)CCCCC[C@H](NC(=O)c1cncs1)c1ncc(-c2ccc3ccccc3n2)[nH]1 [Entry 128, (S)-N-(7-(methylamino)-7-oxo-1-(5-(quinolin-2-yl)-1H-imidazol-2-yl)heptyl)thiazole-5-carboxamide] | 5.30 to 6.00 | < 5.30 |
| CNC(=O)CCCCC[C@H](NC(=O)c1cncs1)c1ncc(-c2cccc(-c3cc[nH]n3)c2)[nH]1 [Entry 188, (S)-N-(1-(5-(3-(1H-pyrazol-3-yl)phenyl)-1H-imidazol-2-yl)-7-(methylamino)-7-oxoheptyl)thiazole-5-carboxamide] | 5.30 to 6.00 | < 5.30 |
| CNC(=O)CCCCC[C@H](NC(=O)C12CCN(CC1)CC2)c1ncc(-c2cc3ccccc3[nH]c2=O)[nH]1 [Entry 204, (S)-N-(7-(methylamino)-7-oxo-1-(5-(2-oxo-1,2-dihydroquinolin-3-yl)-1H-imidazol-2-yl)heptyl)quinuclidine-4-carboxamide] | < 5.30 | 5.30 to 6.00 |
| CNC(=O)CCCCC[C@H](NC(=O)c1cnsc1)c1ncc(-c2ccc(-n3cccn3)cc2)[nH]1 [Entry 12, (S)-N-(1-(5-(4-(1H-pyrazol-1-yl)phenyl)-1H-imidazol-2-yl)-7-(methylamino)-7-oxoheptyl)isothiazole-4-carboxamide] | 5.30 to 6.00 | 5.30 to 6.00 |
| CNC(=O)CCCCC[C@H](NC(=O)c1csc(-c2cccnc2)n1)c1ncc(-c2ccc3ccccc3c2)[nH]1 [Entry 197, (S)-N-(7-(methylamino)-1-(5-(naphthalen-2-yl)-1H-imidazol-2-yl)-7-oxoheptyl)-2-(pyridin-3-yl)thiazole-4-carboxamide] | 5.30 to 6.00 | < 5.30 |
| CNC(=O)CCCCC[C@H](NC(=O)c1cnc(CN2CCCC2)s1)c1ncc(-c2ccc(-c3ccn(C)n3)cc2)[nH]1 [Entry 124, (S)-N-(1-(5-(4-(1-methyl-1H-pyrazol-3-yl)phenyl)-1H-imidazol-2-yl)-7-(methylamino)-7-oxoheptyl)-2-(pyrrolidin-1-ylmethyl)thiazole-5-carboxamide] | > 6.00 | 5.30 to 6.00 |
| CNC(=O)CCCCC[C@H](NC(=O)Cn1nnc2ccccc21)c1ncc(-c2cc3ccccc3nc2OC)[nH]1 [Entry 7] | 5.30 to 6.00 | > 6.00 |
| CNC(=O)CCCCC[C@H](NC(=O)Cn1cnnc1)c1ncc(-c2cc3ccccc3nc2OC)[nH]1 [Entry 184, (S)-7-(2-(4H-1,2,4-triazol-4-yl)acetamido)-7-(5-(2-methoxyquinolin-3-yl)-1H-imidazol-2-yl)-N-methylheptanamide] | 5.30 to 6.00 | 5.30 to 6.00 |
